Results published in PubChem BioAssay (NCI).
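Test compounds were applied to cells in 96-well plates for 48 hours at 5 doses. Definition used: TGI = concentration required for complete inhibition of growth.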

Experiments:
Test in all cases: growth of human tumour cells (NCI), 48 h
OVCAR-8 ovarian = tested on: OVCAR-8 ovarian
HOP-62 NSCLC = tested on: HOP-62 NSCLC
786-0 renal = tested on: 786-0 renal
EKVX NSCLC = tested on: EKVX NSCLC
NCI-H23 lung = tested on: NCI-H23 lung
NCI-H460 lung = tested on: NCI-H460 lung
RPMI-8226 leukemia = tested on: RPMI-8226 leukemia
M14 melanoma = tested on: M14 melanoma
UACC-62 melanoma = tested on: UACC-62 melanoma
SW-620 colon = tested on: SW-620 colon
MALME-3M melanoma = tested on: MALME-3M melanoma
OVCAR-3 ovarian = tested on: OVCAR-3 ovarian

In the case of `c1ccc2c(c1)ccn2CCc1c[nH]c2ccccc12`, the TGI (OVCAR-8 ovarian) is reported as > 10 µM, the TGI (HOP-62 NSCLC) is reported as > 10 µM and the TGI (786-0 renal) is reported as > 10 µM. The TGI (EKVX NSCLC) was > 10 µM, the TGI (NCI-H23 lung) was > 10 µM and the TGI (NCI-H460 lung) was > 10 µM. For the same molecule, the TGI (RPMI-8226 leukemia) was > 10 µM, the TGI (M14 melanoma) was > 10 µM and the TGI (UACC-62 melanoma) was > 10 µM. For the same molecule, the TGI (SW-620 colon) was > 10 µM, the TGI (MALME-3M melanoma) was > 10 µM and the TGI (OVCAR-3 ovarian) was > 10 µM.
`CSc1ncnc2c1ncn2C1CC(Oc2ccc(C)cc2)C(COc2ccc(C)cc2)O1` (stereo unspecified) was tested, and the TGI (OVCAR-8 ovarian) was > 100 µM, the TGI (HOP-62 NSCLC) was > 100 µM and the TGI (786-0 renal) was > 100 µM. For the same molecule, the TGI (EKVX NSCLC) was > 100 µM, the TGI (NCI-H23 lung) was > 100 µM and the TGI (NCI-H460 lung) was > 100 µM. The TGI (RPMI-8226 leukemia) was > 100 µM, the TGI (M14 melanoma) was > 100 µM and the TGI (UACC-62 melanoma) was > 100 µM. The TGI (SW-620 colon) was > 100 µM, the TGI (MALME-3M melanoma) was > 100 µM and the TGI (OVCAR-3 ovarian) was > 100 µM.
In the case of `CC(=O)OC(/C=C/c1ccccc1)=C(OC(C)C)/C1=C(\c2ccccc2)SCCCSC1=O`, the TGI (OVCAR-8 ovarian) is reported as > 100 µM, the TGI (HOP-62 NSCLC) is reported as > 100 µM and the TGI (786-0 renal) is reported as > 100 µM. For the same molecule, the TGI (EKVX NSCLC) was > 100 µM, the TGI (NCI-H23 lung) was > 100 µM and the TGI (NCI-H460 lung) was > 100 µM. For the same molecule, the TGI (RPMI-8226 leukemia) was > 100 µM, the TGI (M14 melanoma) was > 100 µM and the TGI (UACC-62 melanoma) was > 100 µM. The TGI (SW-620 colon) was > 100 µM, the TGI (MALME-3M melanoma) was > 100 µM and the TGI (OVCAR-3 ovarian) was > 100 µM.
For `C[N+](C)(C)CC1CCCCCCCCCCC1=O` (stereo unspecified), the TGI (OVCAR-8 ovarian) was > 100 µM, the TGI (HOP-62 NSCLC) was > 100 µM and the TGI (786-0 renal) was > 100 µM. For the same molecule, the TGI (EKVX NSCLC) was > 100 µM, the TGI (NCI-H23 lung) was > 100 µM and the TGI (NCI-H460 lung) was > 100 µM. The TGI (RPMI-8226 leukemia) was > 100 µM, the TGI (M14 melanoma) was > 100 µM and the TGI (UACC-62 melanoma) was > 100 µM. The TGI (SW-620 colon) was > 100 µM, the TGI (MALME-3M melanoma) was > 100 µM and the TGI (OVCAR-3 ovarian) was > 100 µM.
`Cc1ccc([N+](=O)[O-])cc1S(=O)(=O)Nc1ccc(C2=NNC(c3ccccc3)C2)cc1` (stereo unspecified) was tested, and the TGI (OVCAR-8 ovarian) was > 100 µM, the TGI (HOP-62 NSCLC) was 27.2 µM and the TGI (786-0 renal) was 74.1 µM. The TGI (EKVX NSCLC) was > 100 µM, the TGI (NCI-H23 lung) was 89.8 µM and the TGI (NCI-H460 lung) was 37.6 µM. For the same molecule, the TGI (RPMI-8226 leukemia) was > 100 µM, the TGI (M14 melanoma) was 52.3 µM and the TGI (UACC-62 melanoma) was 24.3 µM. The TGI (SW-620 colon) was > 100 µM, the TGI (MALME-3M melanoma) was 46 µM and the TGI (OVCAR-3 ovarian) was 20.4 µM.
With `CCOCc1nc2c(OC)cc(-c3nc4ccc(N5CCN(C)CC5)cc4[nH]3)c(OC)c2[nH]1` the TGI (OVCAR-8 ovarian) was > 100 µM, the TGI (HOP-62 NSCLC) was 62.8 µM and the TGI (786-0 renal) was > 100 µM. For the same molecule, the TGI (EKVX NSCLC) was > 100 µM, the TGI (NCI-H23 lung) was > 100 µM and the TGI (NCI-H460 lung) was 65.1 µM. The TGI (RPMI-8226 leukemia) was > 100 µM, the TGI (M14 melanoma) was 35.3 µM and the TGI (UACC-62 melanoma) was 34.6 µM. The TGI (SW-620 colon) was > 100 µM, the TGI (MALME-3M melanoma) was 33.5 µM and the TGI (OVCAR-3 ovarian) was 70.6 µM.
`CCN(CC)C(=O)Cn1c(C)cc2ccccc21` was tested, and the TGI (OVCAR-8 ovarian) was > 100 µM, the TGI (HOP-62 NSCLC) was > 100 µM and the TGI (786-0 renal) was > 100 µM. For the same molecule, the TGI (EKVX NSCLC) was > 100 µM, the TGI (NCI-H23 lung) was > 100 µM and the TGI (NCI-H460 lung) was > 100 µM. The TGI (RPMI-8226 leukemia) was > 100 µM, the TGI (M14 melanoma) was > 100 µM and the TGI (UACC-62 melanoma) was > 100 µM. The TGI (SW-620 colon) was > 100 µM, the TGI (MALME-3M melanoma) was > 100 µM and the TGI (OVCAR-3 ovarian) was > 100 µM.
For `CN1CCC(O)(C(C)(C)C)CC1`, the TGI (OVCAR-8 ovarian) was > 100 µM, the TGI (HOP-62 NSCLC) was > 100 µM and the TGI (786-0 renal) was > 100 µM. For the same molecule, the TGI (EKVX NSCLC) was > 100 µM, the TGI (NCI-H23 lung) was > 100 µM and the TGI (NCI-H460 lung) was > 100 µM. For the same molecule, the TGI (RPMI-8226 leukemia) was > 100 µM, the TGI (M14 melanoma) was > 100 µM and the TGI (UACC-62 melanoma) was > 100 µM. For the same molecule, the TGI (SW-620 colon) was > 100 µM, the TGI (MALME-3M melanoma) was > 100 µM and the TGI (OVCAR-3 ovarian) was > 100 µM.
